Source: US8765730B2 (Hoffmann-La Roche Inc, priority 2010, dated 2014)

Molecular target: T1, human GPBAR1 receptor (Homo sapiens, UniProt Q8TDU6)
T1 construct: expressed in transfected cells
T1 sequence (Q8TDU6 1-330): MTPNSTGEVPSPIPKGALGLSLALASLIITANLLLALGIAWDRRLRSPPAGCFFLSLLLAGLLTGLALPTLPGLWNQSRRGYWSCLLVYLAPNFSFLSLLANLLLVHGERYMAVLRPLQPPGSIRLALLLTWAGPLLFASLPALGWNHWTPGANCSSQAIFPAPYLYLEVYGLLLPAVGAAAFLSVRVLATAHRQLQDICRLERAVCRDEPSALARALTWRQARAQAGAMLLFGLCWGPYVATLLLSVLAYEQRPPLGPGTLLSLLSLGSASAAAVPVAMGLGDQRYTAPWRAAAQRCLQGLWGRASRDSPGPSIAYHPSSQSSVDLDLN
Experiment: functional cAMP assay in CHO-dhfr(minus) cells expressing human GPBAR1 receptors
Type: cell-based
Conditions: functional cAMP assay, 30 min at 30° C., read-out: human EC50
Description: The final clone was verified by DNA sequence analysis. The plasmid was transfected into CHO cells deficient in dihydrofolate reductase activity (CHO-dhfr−) using Lipofectamine plus (Invitrogen). Clones were isolated in limited dilution conditions and identified by activities in the cAMP assay using lithocholic acid as agonist.
The growth medium was exchanged with Krebs Ringer Bicarbonate buffer with 1 mM IBMX and incubated at 30° C. for 30 min. Compounds were added to a final assay volume of 100 μl and incubated for 30 min at 30° C. […] The time-resolved energy transfer is measured by a TRF reader (Evotec Technologies GmbH, Hamburg Germany), equipped with a ND:YAG laser as excitation source.
EC50 values were determined using Activity Base analysis (ID Business Solution, Limited). […] Specificity for GPBAR1 was tested in non-transfected CHO cells in the same assay as above.

EC50	SMILES
31 nM	Cc1ccccc1[C@H](C/C(=N\O)c1ccnc(CO)c1)c1ccc(N2CCC(C(=O)O)CC2)cc1 [Example 374, (R,E)-1-(4-(3-(Hydroxyimino)-3-(2-(hydroxymethyl)pyridin-4-yl)-1-o-tolylpropyl)phenyl)-piperidine-4-carboxylic acid]

Same assay, conditions: human EC50, functional cAMP assay, 30 min at 30° C.

EC50	SMILES
4 nM	CCOc1ccc([C@@H](C/C(=N\O)c2ccnc(C)c2)c2ccccc2C)cc1 [Example 364, (R)-3-(4-Ethoxy-phenyl)-1-(2-methyl-pyridin-4-yl)-3-o-tolyl-propan-1-one oxime]
179 nM	Cc1cc(Cl)ccc1C(C/C(=N\O)c1ccc(=O)n(C)c1)c1ccc(OC(C)C)c(F)c1 (centres unmarked) [Example 323, 5-{3-(4-Chloro-2-methyl-phenyl)-3-(3-fluoro-4-isopropoxy-phenyl)-1-[(E)-hydroxyimino]-propyl}-1-methyl-1H-pyridin-2-one]
5980 nM	Cc1ccccc1C(C/C(=N\O)c1ccc(=O)n(C)c1)c1ccc(C(=O)N(C)CC(=O)O)cc1 (centres unmarked) [Example 211, ({4-[3-[(E)-Hydroxyimino]-3-(1-methyl-6-oxo-1,6-dihydro-pyridin-3-yl)-1-o-tolyl-propyl]-benzoyl}-methyl-amino)-acetic acid]
25 nM	Cc1cc(/C(C[C@H](c2ccc(C3CCC(C(=O)O)CC3)cc2)c2ccc(Cl)cc2C)=N/O)ccn1 (stereo partly drawn) [Example 503, (R,E)-4-(4-(1-(4-Chloro-2-methylphenyl)-3-(hydroxyimino)-3-(2-methylpyridin-4-yl)propyl)phenyl)cyclohexanecarboxylic acid]
267 nM	Cc1cc(Cl)ccc1C(C/C(=N\O)c1ccc(=O)n(C)c1)c1ccc(OCCCC(=O)O)cc1 (centres unmarked) [Example 349, 4-{4-[1-(4-Chloro-2-methyl-phenyl)-3-[(E)-hydroxyimino]-3-(1-methyl-6-oxo-1,6-dihydro-pyridin-3-yl)-propyl]-phenoxy}-butyric acid]
356 nM	Cc1ccc(-c2ccc(C(C/C(=N\O)c3ccncc3)c3ccccc3)cc2)cn1 (centres unmarked) [Example 25, (E)-3-[4-(6-Methyl-pyridin-3-yl)-phenyl]-3-phenyl-1-pyridin-4-yl-propan-1-one oxime]
132 nM	Cc1cc(C(CC(c2ccccc2)c2ccccc2)=NO)cc(C)n1 (racemic) [Example 67, 1-(2,6-Dimethyl-pyridin-4-yl)-3,3-diphenyl-propan-1-one oxime]
30 nM	Cc1cc(Cl)ccc1C(C/C(=N\O)c1ccc(=O)n(C)c1)c1ccc(-c2ccc(C(=O)NCC(=O)O)cc2)cc1 (single isomer, unassigned; (-)) [Example 255, (−)-({4′-[1-(4-Chloro-2-methyl-phenyl)-3-[(E)-hydroxyimino]-3-(1-methyl-6-oxo-1,6-dihydro-pyridin-3-yl)-propyl]-biphenyl-4-carbonyl}-amino)-acetic acid]
14 nM	Cc1cc(/C(C[C@H](c2ccc(S(C)(=O)=O)cc2)c2ccccc2C)=N/O)ccn1 [Example 358, (R)-3-(4-Methanesulfonyl-phenyl)-1-(2-methyl-pyridin-4-yl)-3-o-tolyl-propan-1-one oxime]
763 nM	Cc1ccccc1C(C/C(=N\O)c1cc(F)ccc1F)c1ccc(Br)cc1 (centres unmarked) [Example 52, (E)-3-(4-Bromo-phenyl)-1-(2,5-difluoro-phenyl)-3-o-tolyl-propan-1-one oxime]
250 nM	CCNC(=O)c1ccc(C(C/C(=N\O)c2ccc(=O)n(C)c2)c2ccccc2Cl)cc1F (centres unmarked) [Example 245, (E)-4-(1-(2-Chlorophenyl)-3-(hydroxyimino)-3-(1-methyl-6-oxo-1,6-dihydropyridin-3-yl)propyl)-N-ethyl-2-fluorobenzamide]
592 nM	Cc1ccccc1C(C/C(=N\O)c1ccc(=O)n(C)c1)c1ccc(C(=O)NC2(CO)CC2)cc1 (centres unmarked) [Example 308, (E)-4-(3-(Hydroxyimino)-3-(1-methyl-6-oxo-1,6-dihydropyridin-3-yl)-1-o-tolylpropyl)-N-(1-(hydroxymethyl)cyclopropyl)benzamide]
13 nM	Cc1cc(/C(C[C@H](c2ccc(N(C)CCO)cc2)c2ccccc2C)=N/O)ccn1 [Example 268, (E,R)-3-{4-[(2-Hydroxy-ethyl)-methyl-amino]-phenyl}-1-(2-methyl-pyridin-4-yl)-3-o-tolyl-propan-1-one oxime]
81 nM	Cc1cc(/C(CC(c2ccc(C(=O)N3CCN(S(C)(=O)=O)CC3)cc2)c2ccc(F)cc2F)=N/O)ccn1 (centres unmarked) [Example 439, 3-(2,4-Difluoro-phenyl)-3-[4-(4-methanesulfonyl-piperazine-1-carbonyl)-phenyl]-1-(2-methyl-pyridin-4-yl)-propan-1-one oxime]
421 nM	Cn1cc(/C(CC(c2ccc(-c3ccc(CC(=O)O)cc3)cc2)c2ccc(Cl)cc2F)=N/O)ccc1=O (centres unmarked) [Example 460, {4′-[1-(4-Chloro-2-fluoro-phenyl)-3-[(E)-hydroxyimino]-3-(1-methyl-6-oxo-1,6-dihydro-pyridin-3-yl)-propyl]-biphenyl-4-yl}-acetic acid]
25 nM	Cn1cc(/C(CC(c2ccc(Br)cc2)c2ccc(Cl)cc2F)=N/O)ccc1=O (centres unmarked) [Example 237, 5-{3-(4-Bromo-phenyl)-3-(4-chloro-2-fluoro-phenyl)-1-[(E)-hydroxyimino]-propyl}-1-methyl-1H-pyridin-2-one]
111 nM	Cc1cc(C(=O)O)ccc1-c1ccc(C(C/C(=N\O)c2ccc(=O)n(C)c2)c2ccc(Cl)cc2Cl)cc1 (single isomer, unassigned) [Example 477, 4′-[(−)-1-(2,4-Dichloro-phenyl)-3-[(E)-hydroxyimino]-3-(1-methyl-6-oxo-1,6-dihydro-pyridin-3-yl)-propyl]-2-methyl-biphenyl-4-carboxylic acid]
14 nM	Cc1cc(Cl)ccc1C(C/C(=N\O)c1ccc(=O)n(C)c1)c1ccc(CO)cc1 (centres unmarked) [Example 337, (E)-5-(3-(4-Chloro-2-methylphenyl)-1-(hydroxyimino)-3-(4-(hydroxymethyl)phenyl)-propyl)-1-methylpyridin-2(1H)-one]
164 nM	Cc1ccccc1[C@H](C/C(=N\O)c1cc(Cl)nc(Cl)c1)c1ccc(-c2ccc(C(=O)O)cc2)cc1 [Example 146, (E,R)-4′-(3-(2,6-Dichloropyridin-4-yl)-3-(hydroxyimino)-1-o-tolylpropyl)biphenyl-4-carboxylic acid]
90 nM	COCCOCCn1cc(/C(CC(c2ccc(S(C)(=O)=O)cc2)c2ccc(Cl)cc2C)=N/O)ccc1=O (centres unmarked) [Example 339, (E)-5-(3-(4-chloro-2-methylphenyl)-1-(hydroxyimino)-3-(4-(methylsulfonyl)phenyl)propyl)-1-(2-(2-methoxyethoxy)ethyl)pyridin-2(1H)-one]
170 nM	Cn1cc(/C(CC(c2ccc(-c3c[nH]c(=O)[nH]c3=O)cc2)c2ccc(Cl)cc2F)=N/O)ccc1=O (centres unmarked) [Example 471, 5-{4-[1-(4-Chloro-2-fluoro-phenyl)-3-[(E)-hydroxyimino]-3-(1-methyl-6-oxo-1,6-dihydro-pyridin-3-yl)-propyl]-phenyl}-1H-pyrimidine-2,4-dione]
41 nM	Cc1cc(/C(C[C@H](c2ccc(CC(=O)O)cc2)c2ccc(Cl)cc2C)=N/O)ccn1 [Example 382, {4-[(R)-1-(4-Chloro-2-methyl-phenyl)-3-[(E)-hydroxyimino]-3-(2-methyl-pyridin-4-yl)-propyl]-phenyl}-acetic acid]
933 nM	Cc1ccccc1C(C/C(=N\O)c1cc(Cl)ccc1Cl)c1ccc(Br)cc1 (single isomer, unassigned; (-)) [Example 51, (−)-(E)-3-(4-bromo-phenyl)-1-(2,5-dichloro-phenyl)-3-o-tolyl-propan-1-one oxime]
1 nM	Cc1cc(/C(C[C@H](c2ccc(-c3cn(C)nn3)cc2)c2ccccc2C)=N/O)ccn1 [Example 424, (−)-1-(2-Methyl-pyridin-4-yl)-3-[4-(1-methyl-1H-[1,2,3]triazol-4-yl)-phenyl]-3-o-tolyl-propan-1-one oxime]
76 nM	ON=C(CC(c1ccccc1)c1ccccc1)c1cc(F)ncc1Cl (racemic) [Example 58, 1-(5-Chloro-2-fluoro-pyridin-4-yl)-3,3-diphenyl-propan-1-one oxime]
1640 nM	CN1CCC(N(C)C(=O)c2ccc(C(C/C(=N\O)c3ccc(=O)n(C)c3)c3ccccc3Cl)cc2F)CC1 (centres unmarked) [Example 218, (E)-4-(1-(2-Chlorophenyl)-3-(hydroxyimino)-3-(1-methyl-6-oxo-1,6-dihydropyridin-3-yl)propyl)-2-fluoro-N-methyl-N-(1-methylpiperidin-4-yl)benzamide]
55 nM	Cc1cc(Cl)ccc1C(C/C(=N\O)c1ccc(=O)n(C)c1)c1ccc(-c2ccc(C(=O)O)cc2)cc1 (centres unmarked) [Example 227, (E)-4′-(1-(4-Chloro-2-methylphenyl)-3-(hydroxyimino)-3-(1-methyl-6-oxo-1,6-dihydropyridin-3-yl)propyl)biphenyl-4-carboxylic acid]
490 nM	O=C(O)c1cccc(-c2ccc(C(C/C(=N\O)c3ccncc3)c3ccccc3)cc2)c1 (centres unmarked) [Example 76, 4′-{3-[(E)-Hydroxyimino]-1-phenyl-3-pyridin-4-yl-propyl}-biphenyl-3-carboxylic acid]
